Laboratory results published in ChEMBL document CHEMBL4359853, “Antiproliferative activity of (R)-4'-methylklavuzon on hepatocellular carcinoma cells and EpCAM+/CD133+ cancer stem cells via SIRT1 and Exportin-1 (CRM1) inhibition” (Eur J Med Chem, 2019).
Activity calls are given as the source filed them. The calls are words filed in the database; no cut-off is given here.

Assays:
Huh-7 [1] = test: Induction of apoptosis in human HuH7 negative EpCAM/CD133 cells assessed as change in cell number at 0.1 to 10 uM measured after 48 hrs by 2D microscopic analysis; assay type: functional, cell-based
Huh-7 [2] = test: Upregulation of p21 expression in human HuH7 cells expressing positive EpCAM/CD133 at 1 to 3 uM measured after 72 hrs by SYBR-green based qPCR analysis; assay type: functional, cell-based
[3] = target: T1, NAD-dependent protein deacetylase sirtuin-1 (Homo sapiens) (UniProt Q96EB6); test: Inhibition of human recombinant SIRT1 at 100 uM using FLUOR DE LYS SIRT1, deacetylase as substrate preincubated for 2 mins followed by substrate addition measured after 1 hr in presence of NAD+ by fluorescence assay relative to control
T1 sequence (whole entry): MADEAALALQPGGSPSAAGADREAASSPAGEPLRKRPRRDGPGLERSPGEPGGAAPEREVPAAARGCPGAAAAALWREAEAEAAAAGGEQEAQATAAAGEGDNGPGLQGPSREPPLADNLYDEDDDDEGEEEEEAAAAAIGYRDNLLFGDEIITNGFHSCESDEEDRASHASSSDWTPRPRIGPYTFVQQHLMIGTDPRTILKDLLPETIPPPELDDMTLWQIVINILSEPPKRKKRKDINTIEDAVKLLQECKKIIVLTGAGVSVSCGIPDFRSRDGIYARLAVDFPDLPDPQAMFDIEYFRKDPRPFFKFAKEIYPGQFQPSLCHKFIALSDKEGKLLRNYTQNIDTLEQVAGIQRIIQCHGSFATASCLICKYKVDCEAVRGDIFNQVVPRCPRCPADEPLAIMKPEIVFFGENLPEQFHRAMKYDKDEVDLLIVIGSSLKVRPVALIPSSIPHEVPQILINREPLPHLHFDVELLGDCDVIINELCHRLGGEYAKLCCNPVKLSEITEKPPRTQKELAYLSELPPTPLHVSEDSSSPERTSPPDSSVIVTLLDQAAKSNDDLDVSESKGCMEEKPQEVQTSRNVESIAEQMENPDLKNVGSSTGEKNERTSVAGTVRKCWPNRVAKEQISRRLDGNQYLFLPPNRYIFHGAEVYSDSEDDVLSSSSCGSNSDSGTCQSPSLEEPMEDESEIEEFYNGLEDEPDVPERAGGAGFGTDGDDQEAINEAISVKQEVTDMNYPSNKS

Huh-7 [4] = test: Induction of apoptosis in human HuH7 negative EpCAM/CD133 cells assessed as change in cell morphology at 0.1 to 10 uM measured after 48 hrs by 2D microscopic analysis; assay type: functional, cell-based
[5] = target: Histone-lysine N-methyltransferase EZH2 (Homo sapiens) (UniProt Q15910); test: Activation of EZH2 in human HuH7 cells assessed as upregulation of H3K27me3 expression measured after 4 hrs by Western blot analysis; assay type: cell-based
Huh-7 [6] = test: Induction of apoptosis in human HuH7 cells assessed as loss of spheroid morphology at 62.5 uM measured after 48 hrs by inverted light microscopy based matrigel assay; assay type: functional, cell-based
[7] = target: Exportin-1 (Homo sapiens) (UniProt O14980); test: Inhibition of CRM1 in human HepG2 cells assessed as accumulation of RIOK2 in nucleus at 0.1 to 10 uM measured after 6 hrs by DAPI staining based confocal microscopy analysis; assay type: cell-based
Huh-7 [8] = test: Cell cycle arrest in human HuH7 negative EpCAM/CD133 cells assessed as increase in accumulation at G2 phase at 10 uM measured after 48 hrs by propidium iodide staining based flow cytometry analysis; assay type: functional
HepG2 [9] = test: Cytotoxicity against human HepG2 cells assessed as reduction in cell viability measured after 72 hrs by MTT assay; assay type: functional, cell-based; details: HepG2, 72 h
Huh-7 [10] = test: Upregulation of p21 expression in human HuH7 cells at 1 to 3 uM measured after 24 to 72 hrs by SYBR-green based qPCR analysis; assay type: functional, cell-based
Huh-7 [11] = test: Induction of apoptosis in human HuH7 cells assessed as increase in early apoptotic cells at 10 uM measured after 48 hrs by Annexin V-FITC/propidium iodide staining based flow cytometry analysis; assay type: functional, cell-based
Huh-7 [12] = test: Cytotoxicity against human HuH7 cells expressing positive EpCAM/CD133 assessed as reduction in cell viability measured after 24 hrs by MTT assay; assay type: functional, cell-based; details: Huh-7, 24 h
[13] = target: Exportin-1 (Homo sapiens) (UniProt O14980); test: Inhibition of CRM1 in human HepG2 cells assessed as upregulation of p53 by measuring accumulation in nucleus at 0.1 to 10 uM measured after 6 to 24 hrs by DAPI staining based immunofluorescence microscopy analysis; assay type: cell-based
Homo sapiens [14] = organism: Homo sapiens; test: Inhibition of Sirtuin/HDAC in human HuH7 cells expressing positive EpCAM/CD133 assessed as decrease in enzymatic activity at 0.10 to 5 uM measured after 24 hrs relative to control; assay type: cell-based
Huh-7 [15] = test: Induction of apoptosis in human HuH7 negative EpCAM/CD133 cells assessed as increase in early apoptotic cells measured after 48 hrs by Annexin V-FITC/propidium iodide staining based flow cytometry analysis; assay type: functional, cell-based
Huh-7 [16] = test: Induction of apoptosis in human HuH7 cells expressing positive EpCAM/CD133 assessed as change in cell morphology at 0.1 to 10 uM measured after 48 hrs by 2D microscopic analysis; assay type: functional, cell-based
Huh-7 [17] = test: Induction of apoptosis in human HuH7 cells expressing positive EpCAM/CD133 assessed as loss of spheroid morphology at 62.5 uM measured after 48 hrs by inverted light microscopy based matrigel assay; assay type: functional, cell-based
HepG2 [18] = test: Induction of apoptosis in human 3D HepG2 spheroids at 10 uM measured after 24 hrs by propidium iodide staining based immunofluorescence microscopy analysis; assay type: functional, cell-based
Huh-7 [19] = test: Cell cycle arrest in human HuH7 negative EpCAM/CD133 cells assessed as increase in accumulation at G1 phase at 10 uM measured after 48 hrs by propidium iodide staining based flow cytometry analysis; assay type: functional
[20] = target: T1, NAD-dependent protein deacetylase sirtuin-1 (Homo sapiens); test: Inhibition of human recombinant SIRT1 using FLUOR DE LYS SIRT1, deacetylase as substrate preincubated for 2 mins followed by substrate addition measured after 1 hr in presence of NAD+ by fluorescence assay
Huh-7 [21] = test: Cytotoxicity against human HuH7 cells negative EpCAM/CD133 assessed as reduction in cell viability measured after 48 to 72 hrs by MTT assay; assay type: functional, cell-based
Huh-7 [22] = test: Cytotoxicity against human HuH7 cells assessed as reduction in cell viability measured after 24 hrs by MTT assay; assay type: functional, cell-based; details: Huh-7, 24 h
Huh-7 [23] = test: Cytotoxicity against human HuH7 cells assessed as reduction in cell viability measured after 48 to 72 hrs by MTT assay; assay type: functional, cell-based
Homo sapiens [24] = organism: Homo sapiens; test: Inhibition of class 1/2 HDAC in human HuH7 EpCAM/CD133 positive cells nuclear extract at 0.1 to 81 uM after 24 hrs by fluorescence based assay
Huh-7 [25] = test: Cytotoxicity against human HuH7 cells assessed as effect on SIRT1 protein level at 5 uM measured after 24 hrs by ELISA; assay type: functional, cell-based
Huh-7 [26] = test: Induction of apoptosis in human HuH7 cells assessed as change in cell morphology at 0.1 to 10 uM measured after 48 hrs by 2D microscopic analysis; assay type: functional, cell-based
Huh-7 [27] = test: Cell cycle arrest in human HuH7 positive EpCAM/CD133 cells assessed as increase in accumulation at G1 phase at 1 to 1.25 uM measured after 48 hrs by propidium iodide staining based flow cytometry analysis; assay type: functional

Chain of Exportin-1 (Homo sapiens) (O14980 whole entry): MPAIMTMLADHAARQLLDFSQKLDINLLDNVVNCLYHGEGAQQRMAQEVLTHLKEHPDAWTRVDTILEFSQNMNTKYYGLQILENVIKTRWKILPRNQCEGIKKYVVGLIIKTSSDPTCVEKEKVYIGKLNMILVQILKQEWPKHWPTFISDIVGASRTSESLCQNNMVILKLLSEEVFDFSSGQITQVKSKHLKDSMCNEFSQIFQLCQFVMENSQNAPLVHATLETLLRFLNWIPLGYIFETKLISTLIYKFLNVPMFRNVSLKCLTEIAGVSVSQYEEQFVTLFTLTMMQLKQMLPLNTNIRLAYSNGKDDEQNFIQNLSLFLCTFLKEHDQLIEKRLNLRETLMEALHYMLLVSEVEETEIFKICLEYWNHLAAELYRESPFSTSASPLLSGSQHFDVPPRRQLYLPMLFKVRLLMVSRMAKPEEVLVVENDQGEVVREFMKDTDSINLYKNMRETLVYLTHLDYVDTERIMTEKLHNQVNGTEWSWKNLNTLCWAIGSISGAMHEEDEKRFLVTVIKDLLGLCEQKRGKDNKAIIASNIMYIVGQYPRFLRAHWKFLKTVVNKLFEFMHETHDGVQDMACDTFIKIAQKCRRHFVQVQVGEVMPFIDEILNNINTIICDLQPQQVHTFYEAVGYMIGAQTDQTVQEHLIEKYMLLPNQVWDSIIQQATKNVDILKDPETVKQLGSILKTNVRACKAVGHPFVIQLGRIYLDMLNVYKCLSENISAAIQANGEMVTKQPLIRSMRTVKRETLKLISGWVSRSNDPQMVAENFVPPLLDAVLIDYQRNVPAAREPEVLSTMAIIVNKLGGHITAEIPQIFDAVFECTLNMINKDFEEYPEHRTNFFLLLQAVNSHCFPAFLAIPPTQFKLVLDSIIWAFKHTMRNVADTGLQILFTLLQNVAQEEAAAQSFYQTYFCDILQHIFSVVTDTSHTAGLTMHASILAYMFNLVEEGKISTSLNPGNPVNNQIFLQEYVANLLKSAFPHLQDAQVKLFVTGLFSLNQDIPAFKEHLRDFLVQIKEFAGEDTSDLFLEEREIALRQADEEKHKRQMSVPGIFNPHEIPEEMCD
Chain of Histone-lysine N-methyltransferase EZH2 (Homo sapiens) (Q15910 whole entry, looked up): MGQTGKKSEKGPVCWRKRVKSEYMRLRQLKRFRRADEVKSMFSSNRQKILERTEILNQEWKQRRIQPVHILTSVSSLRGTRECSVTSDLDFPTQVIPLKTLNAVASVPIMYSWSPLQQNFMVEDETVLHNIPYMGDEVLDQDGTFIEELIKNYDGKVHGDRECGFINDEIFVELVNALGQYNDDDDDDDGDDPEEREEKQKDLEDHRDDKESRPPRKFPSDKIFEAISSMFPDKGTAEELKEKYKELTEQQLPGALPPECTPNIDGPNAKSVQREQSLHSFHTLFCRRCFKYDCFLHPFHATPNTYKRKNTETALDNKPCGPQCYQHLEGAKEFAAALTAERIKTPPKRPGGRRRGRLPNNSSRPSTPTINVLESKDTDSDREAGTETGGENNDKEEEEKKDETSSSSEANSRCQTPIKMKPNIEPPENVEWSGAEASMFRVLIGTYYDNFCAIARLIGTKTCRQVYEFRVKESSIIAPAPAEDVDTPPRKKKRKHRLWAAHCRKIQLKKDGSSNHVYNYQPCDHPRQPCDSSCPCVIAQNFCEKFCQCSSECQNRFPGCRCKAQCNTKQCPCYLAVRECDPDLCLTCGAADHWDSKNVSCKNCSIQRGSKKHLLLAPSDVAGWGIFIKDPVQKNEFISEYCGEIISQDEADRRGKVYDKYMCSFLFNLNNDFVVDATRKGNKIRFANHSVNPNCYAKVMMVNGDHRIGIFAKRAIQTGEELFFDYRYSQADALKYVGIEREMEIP

Cc1ccc([C@H]2CC=CC(=O)O2)c2ccccc12
Activity (Huh-7 [1]): Active
Activity (Huh-7 [2]): Active
inhibition [3]: 50%
Activity (Huh-7 [4]): Active
Activity [5]: Active
Activity (Huh-7 [6]): Active
inhibition [7]: Active
Activity (Huh-7 [8]): Active
IC50 (HepG2 [9]): 100 nM
Activity (Huh-7 [10]): Active
Activity (Huh-7 [11]): Active
IC50 (Huh-7 [12]): 10 µM
inhibition [13]: Active
inhibition (Homo sapiens [14]): 32 to 39%
Activity (Huh-7 [15]): Dose-dependent effect
Activity (Huh-7 [16]): Active
Activity (Huh-7 [17]): Active
Activity (HepG2 [18]): Active
Activity (Huh-7 [19]): Active
inhibition [20]: Dose-dependent effect
IC50 (Huh-7 [21]): 1250 nM
IC50 (Huh-7 [22]): 10 µM
IC50 (Huh-7 [23]): 1250 nM
inhibition (Homo sapiens [24]): inactive
Activity (Huh-7 [25]): Active
Activity (Huh-7 [26]): Active
Activity (Huh-7 [27]): Active
